Test results: patent US11746116B2, “Antibiotic resistance breakers” (KING'S COLLEGE LONDON, priority 2017, dated 2023)
Converted amounts (≈) assume the structure as drawn. Read-outs that look alike come from different tables or passages of the source.

Columns and labels:
Assay in all cases: MIC, microdilution broth method
VRE12204 = format: cell-based, Enterococcus faecium; conditions: VRE12204; in µg/mL
MSSA9144 = format: cell-based, Staphylococcus aureus; conditions: MSSA9144; in µg/mL
VRE12201 = format: cell-based, Enterococcus faecalis; conditions: VRE12201; in µg/mL
VSE775 = format: cell-based, Enterococcus faecalis; conditions: VSE775; in µg/mL
EMRSA15 = format: cell-based, Staphylococcus aureus
EMRSA16 = format: cell-based, Staphylococcus aureus
M6 = format: cell-based; conditions: M6; Normal (no PMBN); in µg/mL
Ab17978 = format: cell-based; conditions: Ab17978; Normal (no PMBN); in µg/mL

Row | SMILES | MIC (VRE12204) | MIC (MSSA9144) | MIC (VRE12201) | MIC (VSE775) | MIC, EMRSA15 (EMRSA15; EMRSA15 (Table 16, role of the terminal pyrimidine ring), in µg/mL) | MIC, EMRSA16 (EMRSA16; EMRSA16 (Table 16, role of the terminal pyrimidine ring), in µg/mL) | MIC (EMRSA15; EMRSA15, in µg/mL) | MIC (EMRSA16; EMRSA16, in µg/mL) | MIC (EMRSA15; Staphylococcus aureus, Staphylococcus aureus (EMRSA15), Table 12, read-out: MIC) [µg/mL] | MIC (EMRSA16; Staphylococcus aureus (EMRSA16), Table 12, read-out: MIC) [µg/mL] | MIC (M6) | fold reduction (potentiation) in MIC compared to the parent fluoroquinolone (EMRSA15; EMRSA-15) | fold reduction (potentiation) in MIC compared to the parent fluoroquinolone (EMRSA16; EMRSA-16) | MIC (Ab17978)
1 | CCn1cc(C(=O)O)c(=O)c2cc(F)c(N3CCNCC3)nc21 [Enoxacin, enoxacin, reference compound] | 4-8 | 2 | 8 | 16 | – | – | – | – | – | – | – | – | – | –
2 | C[C@H]1COc2c(N3CC[C@@H](N)C3)c(F)cc3c(=O)c(C(=O)O)cn1c23 [KSN-L44] | – | – | – | – | 32 | 32 | – | – | – | – | – | – | – | –
3 | CCn1cc(C(=O)O)c(=O)c2cc(F)c(N3CCN(Cc4cccc5ccccc45)CC3)nc21 [ML-77-025] | 4 | 0.5-1 | 8 | 16 | – | – | 2-8 | 2-4 | – | – | – | 64-128 fold | 64-128 fold | –
4 | CCn1cc(C(=O)O)c(=O)c2cc(F)c(N3CCN(Cc4ccc(-n5cncn5)cc4)CC3)cc21 [Compound 3.32, 7-(4-(4-(1H-1,2,4-triazol-1-yl)benzyl)piperazin-1-yl)-1-ethyl-6-fluoro-4-oxo-1,4-dihydroquinoline-3-carboxylic acid] | 16 | 1 | 8 | 8 | – | – | – | – | – | – | – | – | – | –
5 | O=C(O)c1cn(C2CC2)c2cc(N3CCN(Cc4ccc5ccccc5c4)CC3)c(F)cc2c1=O [ML-77-036] | 2 | 0.12 | 0.5 | 0.5-2 | – | – | 2 | 2 | – | – | 4-32 | – | – | 8
6 | O=C(O)c1cn(C2CC2)c2cc(N3CCN(Cc4ccc(I)cc4)CC3)c(F)cc2c1=O | 4 | 0.12-0.25 | 1-2 | 2 | – | – | 4 | 4 | – | – | – | – | – | –
7 | O=C(O)c1cn(C2CC2)c2cc(N3CCN(Cc4ccc(-n5cncn5)cc4)CC3)c(F)cc2c1=O [Compound 2.36, 7-(4-(4-(1H-1,2,4-triazol-1-yl)benzyl)piperazin-1-yl)-1-cyclopropyl-6-fluoro-4-oxo-1,4-dihydroquinoline-3-carboxylic acid] | 8 | 0.12 | 0.5 | 1 | – | – | 16-32 | 16 | – | – | – | – | – | –
8 | CCn1cc(C(=O)O)c(=O)c2cc(F)c(N3CCN(Cc4ccc(-c5noc(C)n5)cc4)CC3)cc21 [Compound 3.36, 1-ethyl-6-fluoro-7-(4-(4-(5-methyl-1,2,4-oxadiazol-3-yl)-benzyl)piperazin-1-yl)-4-oxo-1,4-dihydroquinone-3-carboxylic acid] | 8 | 0.25 | 4 | 8 | – | – | 16-32 | 32 | – | – | – | – | – | –
9 | CCn1cc(C(=O)O)c(=O)c2cc(F)c(N3CCN(c4cccc5ccccc45)CC3)cc21 [ML-77-169, 1-ethyl-6-fluoro-7-(4-(naphthalen-1-yl)piperazin-1-yl)-4-oxo-1,4-dihydroquinoline-3-carboxylic acid] | 1 | 2 | 2 | 2 | – | – | 1-2 | 1 | – | – | – | – | – | –
10 | CCn1cc(C(=O)O)c(=O)c2cc(F)c(N3CCN(Cc4ccc(-n5cccn5)cc4)CC3)cc21 [Compound 3.30, 7-(4-(4-(1H-pyrazol-1-yl)benzyl)piperazin-1-yl)-1-ethyl-6-fluoro oxo-1-4-dihydroquinoline-3-carboxylic acid] | 16 | 0.5 | 4-8 | 8 | – | – | 16-32 | 32 | – | – | – | – | – | –

Further lines, with some results ahead:

Row | MIC (VRE12204) | MIC (MSSA9144) | MIC (VRE12201) | MIC (VSE775) | MIC, EMRSA15 (EMRSA15; EMRSA15 (Table 16, role of the terminal pyrimidine ring), in µg/mL) | MIC, EMRSA16 (EMRSA16; EMRSA16 (Table 16, role of the terminal pyrimidine ring), in µg/mL) | MIC (EMRSA15; EMRSA15, in µg/mL) | MIC (EMRSA16; EMRSA16, in µg/mL) | MIC (EMRSA15; Staphylococcus aureus, Staphylococcus aureus (EMRSA15), Table 12, read-out: MIC) [µg/mL] | MIC (EMRSA16; Staphylococcus aureus (EMRSA16), Table 12, read-out: MIC) [µg/mL] | SMILES | MIC (M6) | fold reduction (potentiation) in MIC compared to the parent fluoroquinolone (EMRSA15; EMRSA-15) | fold reduction (potentiation) in MIC compared to the parent fluoroquinolone (EMRSA16; EMRSA-16) | MIC (Ab17978)
11 | – | 0.25-1 | 0.5-4 | – | – | – | – | – | – | – | O=C(O)c1cn(C2CC2)c2cc(N3CCN(Cc4cc(=O)[nH]c5ccccc45)CC3)c(F)cc2c1=O [ML-77-058] | 4-32 | – | – | –
12 | 2 | 2 | 4 | 2 | – | – | 2 | 4 | – | – | CCn1cc(C(=O)O)c(=O)c2cc(F)c(N3CCN(Cc4ccc(-c5ccccc5)cc4)CC3)cc21 [ML-77-134, 7-(4-([1,1′-biphenyl]-4-ylmethyl)piperazin-1-yl)-1-ethyl-6-fluoro-4-oxo-1,4-dihydroquinoline-3-carboxylic acid] | 64 | – | – | –
13 | 1-2 | 0.125-1 | 0.5-1 | 1-2 | – | – | 4 | 2-4 | – | – | C[C@H]1COc2c(N3CCN(Cc4cccc5ccccc45)CC3)c(F)cc3c(=O)c(C(=O)O)cn1c23 [ML-77-140, (S)-9-fluoro-3-methyl-10-(4-(naphthalen-1-ylmethyl)piperazin-1-yl)-7-oxo-2,3-dihydro-7H-[1,4]oxazino[2,3,4-ij]quinoline-6-carboxylic acid] | – | – | – | –
14 | – | 4 | 8 | 8 | – | – | 4 | 8 | – | – | O=C(O)c1cn(C2CC2)c2cc(N3CCN(Cc4ccc(F)c5ccccc45)CC3)c(F)cc2c1=O [ML-77-048] | 64 | – | – | 8
15 | 4-8 | 0.5-1 | 8 | 8 | – | – | 4-8 | 4-8 | – | – | CCn1cc(C(=O)O)c(=O)c2cc(F)c(N3CCN(Cc4cc(C)cc(C)c4)CC3)cc21 [ML-77-150, 7-(4-(3,5-dimethylbenzyl)piperazin-1-yl)-1-ethyl-6-fluoro-4-oxo-1,4-dihydroquinoline-3-carboxylic acid] | 32-64 | – | – | 16
16 | – | 0.5 | 2 | 4 | – | – | 64 | – | – | – | O=C(O)c1cn(C2CC2)c2cc(N3CCN(Cc4cccc5cccnc45)CC3)c(F)cc2c1=O [ML-77-052] | 4 | – | – | 0.25
17 | 4 | 2-4 | 4-8 | 4-8 | – | – | 4 | 4 | – | – | CCn1cc(C(=O)O)c(=O)c2cc(F)c(N3CCN(CCc4cccc5ccccc45)CC3)cc21 [ML-77-173, 1-ethyl-6-fluoro-7-(4-(2-(naphthalen-1-yl)ethyl)piperazin-1-yl)-4-oxo-1,4-dihydroquinoline-3-carboxylic acid] | – | – | – | –
18 | 1 | 1 | 0.25-0.5 | 2 | – | – | 1-2 | 1 | – | – | O=C(O)c1cn(C2CC2)c2cc(N3CCN(c4cccc5ccccc45)CC3)c(F)cc2c1=O [ML-77-168] | – | – | – | –
19 | 1-2 | 0.25 | 0.5-2 | 4 | – | – | 2 | 2 | – | – | CCn1cc(C(=O)O)c(=O)c2cc(F)c(N3CCN(Cc4cccc5ccsc45)CC3)cc21 [ML-77-079] | 32 | – | – | –
20 | 1-2 | 0.25 | 1-2 | 2 | – | – | 1 | 1-2 | – | – | O=C(O)c1cn(C2CC2)c2cc(N3CCN(Cc4cccc5c4CCCC5)CC3)c(F)cc2c1=O [ML-77-076] | 8 | – | – | –
21 | 4 | 0.5 | 2 | 4 | – | – | 2-4 | 4 | – | – | O=C(O)c1cn(C2CC2)c2cc(N3CCN(CCc4cccc5ccccc45)CC3)c(F)cc2c1=O [ML-77-171] | – | – | – | –
22 | – | – | – | – | – | – | – | – | 8 (≈ 17.5 µM) | 16 (≈ 35 µM) | C[C@H]1COc2c(N3CCCN(c4ncc(F)cn4)CC3)c(F)cc3c(=O)c(C(=O)O)cn1c23 [ML-83-034] | – | – | – | –
